Data on ten compounds can be found in US20240208965A1, “HETEROARYL ALKYLENE SUBSTITUTED 2-OXOQUINAZOLINE DERIVATIVES AS METHIONINE ADENOSYLTRANSFERASE 2A INHIBITORS” (IDEAYA BIOSCIENCES, INC., priority 2020, published 2024).

SMILES strings stand for the structures.

The IC50 is the concentration at which inhibition is half-maximal.

The experiment deals with T1, Human MAT2A (Homo sapiens, UniProt P31153).
T1 construct: Human MAT2A: Cepter, amino acids 1-395 Clone ID 334, lot 00023-148; purchased Cepter clone ID 334, lot 00023-148
T1 sequence (P31153 whole entry, the tested form may be a part): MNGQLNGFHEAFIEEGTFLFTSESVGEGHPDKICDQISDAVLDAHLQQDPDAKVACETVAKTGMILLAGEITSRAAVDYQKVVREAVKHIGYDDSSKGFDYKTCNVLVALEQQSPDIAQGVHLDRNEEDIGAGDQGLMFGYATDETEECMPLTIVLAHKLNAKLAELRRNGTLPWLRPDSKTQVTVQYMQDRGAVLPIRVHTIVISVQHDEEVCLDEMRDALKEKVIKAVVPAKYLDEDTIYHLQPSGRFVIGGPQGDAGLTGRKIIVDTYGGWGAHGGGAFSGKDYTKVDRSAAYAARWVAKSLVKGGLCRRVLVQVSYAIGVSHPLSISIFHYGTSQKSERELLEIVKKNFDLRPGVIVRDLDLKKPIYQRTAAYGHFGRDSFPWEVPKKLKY
Put plainly: Phosphate Sensor Fluorescence Assay (Biologic Example A). Format: biochemical. Particulars: MAT2A inhibition, Biological Example A procedure (Compounds 1.001-1.028); 500 uM L-methionine, 500 uM ATP. The protocol: The ability of the compound of present disclosure to inhibit MAT2A enzyme was determined using a Phosphate Sensor Fluorescence Assay described below.
Biologic Example A. Phosphate Sensor Fluorescence Assay
MAT2A enzyme is incubated with a test compound in DMSO or DMSO and its substrates (L-methionine and ATP) in a microtiter plate. The enzymatic reaction is stopped by the addition of Working Phosphate Sensor Mixture. The plate is analyzed for fluorescence at 450 nm. The high control (DMSO with enzyme and its substrates) gives high fluorescence which represents no inhibition of enzymatic activity while the low control (DMSO with MAT2A substrates and no enzyme) gives low fluorescence which represents full inhibition of enzymatic activity.
• Human MAT2A: Cepter, amino acids 1-395 • Tris, pH 7.5: Invitrogen cat #15567-027 • KCl: Ambion cat #AM9640G • MgCl2: Ambion cat #AM9530G • Brij-35: Sigma cat B4184-10ML • DTT: Goldbio cat #DTT100 • BGG: Sigma cat #G5009-25G • PNP: Novus Biologicals cat #NBP1-50872 • 7-MEG: Cayman Chemical cat #15988 • L-Methionine: Alfa Aesar cat #J61904 • ATP: Alfa Aesar cat #J60336 • Phosphate Sensor: Thermo Fisher cat #PV4407 • EDTA: Life Tech cat #15575-038 • Assay plate: 384-well black polypropylene plate: Thomas Scientific cat #1149Q35
• Assay Buffer: 50 mM Tris, pH 7.5/50 mM KCl/10 mM MgCl2/0.01% Brij-35/1 mM DTT/0.1% BGG/40 nM PNP/6 uM 7-MEG • MAT2A: 10 nM for Cepter clone ID 329, lot 00023-123 before the addition of Working Phosphate Sensor Mixture • 5 nM for Cepter clone ID 334, lot 00023-148 before the addition of Working Phosphate Sensor Mixture • L-methionine: 500 uM before the addition of Working Phosphate Sensor Mixture • ATP: 500 uM before the addition of Working Phosphate Sensor Mixture
For the assay, a mixture of 1 mM L-methionine/1 mM ATP (2× final pre-stopped concentration) in assay buffer; MAT2A (2× final pre-stopped concentration) in Assay Buffer and Working Phosphate Sensor Mixture (1.5 uM Phosphate Sensor/30 mM EDTA in Assay Buffer, which is 3× final concentrations) were prepared. Test compounds or DMSO were added to the appropriate well suing D300e digital dispenser. 5 μl/well of Assay Buffer was added to the wells corresponding to the negative control and 5 μl/well of MAT2A was added to all the wells except for those corresponding to the negative control. After incubating the plate at room temperature for 15 minutes, 5 μl/well of the 1 mM L-methionine/1 mM ATP mixture was added to all wells. The plate was centrifuged at 1000 rpm for 1 minute and then incubated at room temperature for 1 hour. 5 μl of the Working Phosphate Sensor Mixture was added to all wells and the plate was centrifuged at 1000 rpm for 1 minute. The plate was read for fluorescence at 450 nm after exciting at 430 nm.
Percent inhibition was calculated in Chemical and Biological Information System (CBIS), (ChemInnovation Software Inc.). Curves were fitted by CBIS as % inhibition vs. log [compound concentration] using a 4-parameter inhibition model.
Fit=(A+((B−A)/(1+((C/x)^D))))
Compounds 1.001-1.028 were tested using the procedure described in Bioogical Example A, described above. Compounds 1.029-1.070 were tested using the procedure described in Biological Example B, described above.
Regarding `CO[C@H]1CCN(c2nc(=O)n([C@@H](C)c3c[nH]cn3)c3cc(C(F)(F)F)ccc23)C1` (single isomer, unassigned) [1.022], the IC50 lay in the range of 1000 to 10000 nM.
For `CO[C@@H]1CCN(c2nc(=O)n([C@@H](C)c3c[nH]cn3)c3cc(C(F)(F)F)ccc23)C1` (single isomer, unassigned) [1.026] the value was 200 to 500 nM; for `CNc1nc(=O)n([C@H](C)c2c[nH]cn2)c2cc(C(F)(F)F)ccc12` (single isomer, unassigned) [1.008], 10 to 200 nM; for `CNc1nc(=O)n(C(C)c2c[nH]cn2)c2cc(C(F)(F)F)ccc12` (racemic) [1.007, 1-(1-(1H-imidazol-4-yl)ethyl)-4-(methylamino)-7-(trifluoromethyl)quinazolin-2(1H)-one], 10 to 200 nM.
To `CNc1nc(=O)n(Cc2c[nH]cn2)c2cc(C(F)(F)F)ccc12` [1.003, 1-((1H-imidazol-4-yl)methyl)-4-(methylamino)-7-(trifluoromethyl)quinazolin-2(1H)-one] belongs 10 to 200 nM; to `CO[C@@H]1CCN(c2nc(=O)n([C@H](C)c3c[nH]cn3)c3cc(C(F)(F)F)ccc23)C1` (single isomer, unassigned) [1.025], 10 to 200 nM.
To `CC(c1c[nH]cn1)n1c(=O)nc(N)c2ccc(C(F)(F)F)cc21` (stereo not shown) [1.018, 1-(1-(1H-imidazol-4-yl)ethyl)-4-amino-7-(trifluoromethyl)quinazolin-2(1H)-one] belongs 10 to 200 nM.
Regarding `C[C@H](c1c[nH]cn1)n1c(=O)nc(N2CCCC2)c2ccc(C(F)(F)F)cc21` (single isomer, unassigned) [1.023], the half-inhibitory concentration (IC50) fell in the range of 10 to 200 nM.
To `CNc1nc(=O)n(Cc2c[nH]cn2)c2cc(C3CC3)ccc12` [1.004, 1-((1H-Imidazol-4-yl)methyl)-7-cyclopropyl-4-(methylamino)quinazolin-2(1H)-one] belongs 10 to 200 nM; to `CNc1nc(=O)n([C@H](C)c2cscn2)c2cc(C(F)(F)F)ccc12` [1.002, (R)-4-(methylamino)-1-(1-(thiazol-4-yl)ethyl)-7-(trifluoromethyl)quinazolin-2(1H)-one], 500 to 1000 nM.
